According to US20060281690A1, “Crystalline (2E,4S)-4-[(N-{[(2R)-1-isopropylpiperidin-2-yI]-carbonyl}-3-methyl-L-valyl)(methyl)amino]-2,5-dimethylhex-2-enoic acid and its pharmaceutical uses” (Eisai Co. Ltd., priority 2005, published 2006):
Several values for one entry are separate records, joined by “and”; a condition that tells them apart may be missing. Equal entries are not always repeated.

Columns and labels:
[1] = Solid state stability studies, 21 days; assay type: physicochemical; details: for Total impurities: HPLC area-%
Method: The solid-state stability of crystalline E7974-form M1—unsolvated was evaluated for 21 days. […] In addition, a different peak appeared at only a 0.12% level for sample stored at 40° C. and exposed to 75% relative humidity.

[2] = Hygroscopicity studies (vapor sorption isotherm); assay type: physicochemical
[3] = test system: several cell lines, including human lung carcinoma, human colon carcinoma and human melanoma; details: several cell lines incl. human lung carcinoma; cited from earlier work
[4] = 25° C., visible light (6.8 million lux-hours), 21 d

## C/C(=C\[C@H](C(C)C)N(C)C(=O)[C@@H](NC(=O)[C@H]1CCCCN1C(C)C)C(C)(C)C)C(=O)O [Crystalline E7974-form M1—unsolvated, (2E,4S)-4-[(N-{[(2R)-1-isopropylpiperidin-2-yl]carbonyl}-3-methyl-L-valyl)(methyl)amino]-2,5-dimethylhex-2-enoic acid]
[1]; 25° C., light shield, 21 d
  Total impurities: 0.76%
[1]; 25° C., light shield, 21 d, control: −20° C. light shielded sample
  Wt/Wt: 100.3%
[1]; [4]
  Wt/Wt: 99.9%
  Total impurities: 0.87%
[1]; 40° C., 75% RH, 21 d
  Wt/Wt: 102.2%
  Total impurities: 0.89%
[1]; 40° C., 75% relative humidity, 21 days
  level of a different new impurity peak: 0.12%
[1]; 60° C., light shield, 21 d
  Wt/Wt: 100.9%
  Total impurities: 0.78%
[1]; 21 days at 25° C. and visible light, two new peaks
  level of new impurity peaks: 0.05% and 0.09%
[1]; Initial, sum of all impurities >0.05%
  Total impurities: 0.72%
[1]; shielded from light, stored at 25 and 60° C., 21 days
  changes in the impurity profile: No significant changes
[1]; −20° C., light shield, 21 d
  Total impurities: 0.72%
[2]; at 70% RH, 25° C., FIG. 2
  increase in weight: 1.9%
[2]; high relative humidity (% RH), FIG. 1
  deliquescence: deliquesces at high relative humidity
[2]; up to 70% RH
  water adsorption reversibility: reversible up to 70% RH
[2]; up to 70% RH, criterion: hygroscopic = not less than 3.0% water increase at 75% RH for a week
  hygroscopicity classification: non-hygroscopic
[2]; vapor sorption isotherm, FIG. 1
  hygroscopicity: slightly hygroscopic

## CN[C@H](C(=O)N[C@H](C(=O)N(C)[C@H](/C=C(\C)C(=O)O)C(C)C)C(C)(C)C)C(C)(C)c1cn(C)c2ccccc12 [Hemiasterlin]
[3]
  antitumor activity: exhibits antitumor activity
